Test results from publication PMC6085820 (Molecular Biology of the Cell, 2018).

Target: T1, Mtq2:Trm112 (Saccharomyces cerevisiae, UniProt Q03920)
T1 sequence (Q03920 1-221): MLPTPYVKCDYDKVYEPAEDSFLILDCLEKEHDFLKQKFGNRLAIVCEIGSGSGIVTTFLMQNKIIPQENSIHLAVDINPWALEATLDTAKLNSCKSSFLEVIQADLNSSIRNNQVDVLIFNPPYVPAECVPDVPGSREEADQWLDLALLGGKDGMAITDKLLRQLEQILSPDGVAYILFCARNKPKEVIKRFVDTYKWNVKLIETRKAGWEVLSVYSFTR
T1 sequence (P53738 1-135 partner): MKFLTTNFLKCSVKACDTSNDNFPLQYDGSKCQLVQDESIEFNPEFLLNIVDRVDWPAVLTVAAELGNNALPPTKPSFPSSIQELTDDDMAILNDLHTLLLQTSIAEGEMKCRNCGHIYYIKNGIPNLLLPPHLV
Assay: MTase-Glo coupled luminescence assay
Assay type: biochemical
Conditions: SAM as methyl donor

SMILES	MTase-Glo coupled luminescence assay (SAH formation) (100 µM As(III))	MTase-Glo coupled luminescence assay (SAH formation) (100 µM MAs(III))
O[As](O)O [As(III), sodium arsenite]	SAM-dependent methyltransferase activity of Mtq2:Trm112 using As(III) as substrate was measured	
C[As](O)O [MAs(III), methyl arsenite]		methyltransferase activity was SAM-dependent and additionally capable of using MAs(III) as a substrate
